Measured values from patent publication US12083115B2, “Methods for treating neurological symptoms associated with lysosomal storage diseases” (Genzyme Corporation, priority 2020, dated 2024).
Read-outs that look alike come from different tables or passages of the source.

Experiments:
[1] = tested on: glucosylsphingosine (lyso-GL1); test: Clinical study in GD-3 patients: lyso-GL1 in plasma and CSF; format: in vivo, human; conditions: for Lyso-GL-1 (% change): 52-weeks compared to baseline; for Lyso-GL-1 concentration, 52-weeks (mean) / Lyso-GL-1 concentration, 52-weeks: 15 mg/day + imiglucerase; for Lyso-GL-1 concentration, 52-weeks: all six patients
Procedure: The endpoint assessments are related to safety, CSF biomarkers, pharmacokinetics/pharmacodynamics, systemic disease, and neuroimaging and neurological function (CNS/neurological manifestations).
During the study patients were evaluated for safety and tolerability, CSF and plasma biomarkers (glucosylceramide, GL-1; glucosylsphingosine, lyso-GL1), pharmacokinetics, markers for systemic disease (spleen and liver volume measured by magnetic resonance imaging (MRI), platelet count, hemoglobin levels), indicia of interstitial lung disease (high resolution pulmonary computed tomography (CT)), and horizontal saccadic eye movement. In addition, exploratory biomarkers were quantified in CSF of GD3 patients: ceramide (the precursor of GL-1), chitotriosidase (CHITO), GM3, and GPNMB. Symptoms of ataxia were measured using the SARA scale, neurological symptoms were measured using the trail making test, and functional MRI was used to assess neural connectivity in the brain.
Over all six GD3 patients, plasma and CSF GL-1 and lyso-GL-1 concentrations were as follows:
At Week 52, the CSF lyso-GL1 concentrations for Patient 5 were above the upper limit of quantification (ULOQ; >100 pg/mL), and biomarker results for CSF lyso-GL1 were therefore imputed using the exact ULOQ values. […] Mean results for the other study subjects were as follows (N=10; Patient 5 excluded): […]

[2] = Study 1 Part 1: ascending single-dose PK in healthy men; format: in vivo, human; conditions: for Tmax / AUC(0-inf) / AUC(0-t) / Cmax / Vd/F / half-life: male, human, plasma, oral; for Tmax: N = 6, read-out: tmax, median
Description: Study 1 was a 2-part single-center trial in healthy adult male volunteers.
Part 1 of the study enrolled and randomized 55 healthy men (placebo, n=14; 2-, 5-, 15, 25-, 50, and 100-mg doses, n=6 each; 150-mg dose, n=5). Eight healthy men participated in Part 2. […]

## CC(C)(NC(=O)O[C@@H]1CN2CCC1CC2)c1csc(-c2ccc(F)cc2)n1 [Compound 2, (S)-quinuclidin-3-yl 2-(2-(4-fluorophenyl)thiazol-4-yl)propan-2-ylcarbamate]
[1]; CSF Concentration, N = 6, 15 mg/day + imiglucerase
  Lyso-GL-1 (% change): −55.9%
[1]; CSF Concentration, N=10, Patient 5 excluded
  Lyso-GL-1 (% change): −68% ± 17.2%
[1]; CSF, N=10, Patient 5 excluded, Baseline 45.0 pg/mL
  Lyso-GL-1 concentration, 52-weeks (mean): 14.5 pg/mL
[1]; CSF, Baseline 34.0 pg/mL
  Lyso-GL-1 concentration, 52-weeks: 17.3 pg/mL
[1]; Patient 5 (reduced Compound 2 exposure), Week 52 compared to baseline
  increase in plasma lyso-GL1: about 43%
[1]; Patient 5 (reduced Compound 2 exposure), Week 52 compared to baseline, imputed with ULOQ
  increase in CSF lyso-GL1: about 313%
[1]; Patient 5, Week 52, above ULOQ
  CSF lyso-GL1 concentration: > 100 pg/mL
[1]; Plasma Concentration, N = 6, 15 mg/day + imiglucerase
  Lyso-GL-1 (% change): −56.7%
[1]; Plasma Concentration, N=10, Patient 5 excluded
  Lyso-GL-1 (% change): −53% ± 13.5%
[1]; Plasma, N=10, Patient 5 excluded, Baseline 27.6 ng/ml
  Lyso-GL-1 concentration, 52-weeks (mean): 13600 pg/mL
[1]; Plasma, Baseline 29.3 ng/ml
  Lyso-GL-1 concentration, 52-weeks: 15200 pg/mL
[2]; 2 mg single dose, N = 6
  CL/F, Geometric mean (CV): 6.3 (22.0) L/h
[2]; 5 mg single dose, N = 6
  CL/F, Geometric mean (CV): 5.8 (17.3) L/h
[2]; 15 mg single dose, N = 6
  CL/F, Geometric mean (CV): 5.6 (32.2) L/h
[2]; 25 mg single dose, N = 6
  CL/F, Geometric mean (CV): 5.0 (25.3) L/h
  tmax, median: 5.00 h
[2]; 50 mg single dose, N = 6
  CL/F, Geometric mean (CV): 5.5 (34.9) L/h
[2]; 100 mg single dose, N = 6
  CL/F, Geometric mean (CV): 5.3 (23.4) L/h
  tmax, median: 3.00 h
[2]; 150 mg single dose, N = 5
  CL/F, Geometric mean (CV): 5.6 (26.7) L/h
[2]; 2 mg single dose
  Tmax: 3.5 h
[2]; 2 mg, 2 mg single dose, N = 6, read-out: AUCinf, Geometric mean (CV)
  AUC(0-inf): 237 ng·h/mL
[2]; 2 mg, 2 mg single dose, N = 6, read-out: AUCinf, Mean (SD)
  AUC(0-inf): 243 ng·h/mL
[2]; 2 mg, 2 mg single dose, N = 6, read-out: AUClast, Geometric mean (CV)
  AUC(0-t): 209 ng·h/mL
[2]; 2 mg, 2 mg single dose, N = 6, read-out: AUClast, Mean (SD)
  AUC(0-t): 214 ng·h/mL
[2]; 2 mg, 2 mg single dose, N = 6, read-out: Cmax, Geometric mean (CV)
  Cmax: 5.6 ng/mL
[2]; 2 mg, 2 mg single dose, N = 6, read-out: Cmax, Mean (SD)
  Cmax: 5.7 ng/mL
[2]; 2 mg, 2 mg single dose, N = 6, read-out: Vss/F, Geometric mean (CV)
  Vd/F: 270 L
[2]; 2 mg, 2 mg single dose, N = 6, read-out: Vss/F, Mean (SD)
  Vd/F: 275 L
[2]; 2 mg, 2 mg single dose, N = 6, read-out: t1/2, Geometric mean (CV) (converted)
  half-life: 1730 min
[2]; 2 mg, 2 mg single dose, N = 6, read-out: t1/2, Mean (SD) (converted)
  half-life: 1750 min
[2]; 5 mg single dose
  Tmax: 5.5 h
[2]; 5 mg, 5 mg single dose, N = 6, read-out: AUCinf, Geometric mean (CV)
  AUC(0-inf): 643 ng·h/mL
[2]; 5 mg, 5 mg single dose, N = 6, read-out: AUCinf, Mean (SD)
  AUC(0-inf): 652 ng·h/mL
[2]; 5 mg, 5 mg single dose, N = 6, read-out: AUClast, Geometric mean (CV)
  AUC(0-t): 556 ng·h/mL
[2]; 5 mg, 5 mg single dose, N = 6, read-out: AUClast, Mean (SD)
  AUC(0-t): 560 ng·h/mL
[2]; 5 mg, 5 mg single dose, N = 6, read-out: Cmax, Geometric mean (CV)
  Cmax: 14.6 ng/mL
[2]; 5 mg, 5 mg single dose, N = 6, read-out: Cmax, Mean (SD)
  Cmax: 14.7 ng/mL
[2]; 5 mg, 5 mg single dose, N = 6, read-out: Vss/F, Geometric mean (CV)
  Vd/F: 273 L
[2]; 5 mg, 5 mg single dose, N = 6, read-out: Vss/F, Mean (SD)
  Vd/F: 274 L
[2]; 5 mg, 5 mg single dose, N = 6, read-out: t1/2, Geometric mean (CV) (converted)
  half-life: 1950 min
[2]; 5 mg, 5 mg single dose, N = 6, read-out: t1/2, Mean (SD) (converted)
  half-life: 2000 min
[2]; 15 mg single dose
  Tmax: 3.5 h
[2]; 15 mg, 15 mg single dose, N = 6, read-out: AUCinf, Geometric mean (CV)
  AUC(0-inf): 1990 ng·h/mL
[2]; 15 mg, 15 mg single dose, N = 6, read-out: AUCinf, Mean (SD)
  AUC(0-inf): 2070 ng·h/mL
[2]; 15 mg, 15 mg single dose, N = 6, read-out: AUClast, Geometric mean (CV)
  AUC(0-t): 1760 ng·h/mL
[2]; 15 mg, 15 mg single dose, N = 6, read-out: AUClast, Mean (SD)
  AUC(0-t): 1830 ng·h/mL
[2]; 15 mg, 15 mg single dose, N = 6, read-out: Cmax, Geometric mean (CV)
  Cmax: 50.7 ng/mL
[2]; 15 mg, 15 mg single dose, N = 6, read-out: Cmax, Mean (SD)
  Cmax: 53 ng/mL
[2]; 15 mg, 15 mg single dose, N = 6, read-out: Vss/F, Geometric mean (CV)
  Vd/F: 233 L
[2]; 15 mg, 15 mg single dose, N = 6, read-out: Vss/F, Mean (SD)
  Vd/F: 245 L
[2]; 15 mg, 15 mg single dose, N = 6, read-out: t1/2, Geometric mean (CV) (converted)
  half-life: 1740 min
